Assay results published in patent US20250152564A1, “PROPYLENE KETONE-CONTAINING BIOINHIBITOR, PREPARATION METHOD THEREFOR, AND USE THEREOF” (SHANGHAI HANSOH BIOMEDICAL CO., LTD., priority 2022, published 2025).

Experiments:
FGFR3 = FGFR3 (Homo sapiens (Human), UniProt P22607); assay: TR-FRET kinase inhibition assay, FGFR3; type: biochemical; details: ATP Km concentration (30 μM)
Procedure: To measure the IC50 values of the compounds against FGFR1, FGFR2, FGFR3, FGFR4, and FGFR2 V564F at ATP Km concentrations by TR-FRET method.
TR-FRET (time-resolved fluorescence resonance energy transfer) method was used to detect the inhibitory activity of the compounds on FGFR1, FGFR2, FGFR3, FGFR4, and FGFR2 V564F kinase region fragments. The highest detection concentration of the compounds in 5 kinase experiments was 1000 nM, which was diluted in 3 folds, with a total of 11 concentrations (1000 nM to 0.017 nM). A kinase buffer (50 mM HEPES pH 7.5, 1 mM EGTA, 10 mM MgCl2, 2 mM DTT, and 0.01% Tween-20) was used to prepare 4× enzyme solution, 4× compound solutions diluted in gradient, and a 2×ATP/Peptide substrate solution. To a 384-well plate, 2.5 μL of enzyme solution and 2.5 μL of diluted […] compound solution were added, and 5 μL of 2×ATP/Peptide substrate solution was then added. After reacting at room temperature for 60 minutes for FGFR1, FGFR2, FGFR3, and FGFR2 V564F kinases, and 120 minutes for FGFR4 kinase, 10 μL of a 2× termination and detection mixed liquid prepared with 1×LANCE detection buffer with an EDTA concentration of 20 mM and a Europium-anti-phosphotyrosine (PT66) concentration of 2 nM was added to each well of the plate. After reacting at room temperature for 60 minutes for FGFR1, FGFR2, FGFR3, and FGFR4, and 30 minutes for FGFR2 V564F, the fluorescence signal value in each well of the plate was measured by a microplate reader.
(§1) 1) Inhibition rate (%): Calculation was performed on the raw data (665 nm/620 nm reading ratio) according to the following formula to obtain the inhibition rate. Inhibition rate %=[(mean value in positive control well−value in sample well)/(mean value in positive control well−mean value in negative control well)]×100, wherein the positive control well was a reaction well without a compound […], and the negative control well was a reaction wells without an enzyme.
(§2) 2) Curve fitting: Log(inhibitor) vs. response—Variable slope (four parameters) in GraphPad Prism 6 was used for fitting equation analysis of the compound concentration and the corresponding inhibition rate, and the curve was fitted to obtain the IC50 values of the compounds.

FGFR1 = FGFR1 (Homo sapiens (Human), UniProt P11362); assay: TR-FRET kinase inhibition assay, FGFR1; type: biochemical; details: ATP Km concentration (30 μM)
Method in brief: (§3)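 Kinase-domain fragments in 50 mM HEPES pH 7.5 with 10 mM MgCl2, ATP at Km plus peptide substrate; 60 min reaction at room temperature, then EDTA/Eu-anti-phosphotyrosine (PT66) detection for 60 min (30 min for V564F). 11-point 3-fold dilutions from 1000 nM; IC50 from four-parameter fit of 665/620 nm ratio inhibition.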

FGFR2 V564F = FGFR2 V564F (Homo sapiens (Human), UniProt P21802, V564F); assay: TR-FRET kinase inhibition assay, FGFR2 V564F; type: biochemical; details: ATP Km concentration (20 μM)
Method in brief: as §3

[1] = test system: BaF3 FGFR2-BICC1 V564F cells; assay: CellTiter-Glo cell proliferation inhibition, BaF3 FGFR2-BICC1 V564F; type: cell-based; details: Mus musculus, 72 h, read-out: BaF3 FGFR2-BICC1 V564F inhibitory activity IC50
Method in brief: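 Cells plated, compound added next day as 9-point 3-fold series from 1000 nM to 0.15 nM, incubated 72 h. Viability by CellTiter-Glo luminescence; IC50 from four-parameter variable-slope fit of percent inhibition.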

NCI-H716 cells = assay: CellTiter-Glo cell proliferation inhibition, NCI-H716; type: cell-based; details: Homo sapiens, 72 h, read-out: NCI-H716 cell proliferation inhibition rate IC50
Procedure: To evaluate inhibitory effects of the compounds on the proliferation of NCI-H716, SNU-16 and BaF3-FGFR2-BICC1 V564F cells by cell proliferation inhibition experiments.
CellTiter-Glo method was used to detect inhibitory effects of the compounds on the proliferation of NCI-H716, SNU-16 and BaF3 FGFR2-BICC1 V564F cells. The highest detection concentration of the compounds was 1000 nM, which was diluted in 3 folds, with a total of 9 concentrations (1000 nM to 0.15 nM). After the cells were plated at an appropriate density, compounds were added the next day and incubated for 72 h before detection using the […] detection kit.
as §1, with “(%):” for “(%): Calculation was performed on the raw data (665 nm/620 nm reading ratio) according to the following formula to obtain the inhibition rate.”
as §2

FGFR2 = FGFR2 (Homo sapiens (Human), UniProt P21802); assay: TR-FRET kinase inhibition assay, FGFR2; type: biochemical; details: ATP Km concentration (30 μM)
Method in brief: as §3

[2] = Pharmacokinetic experiment in SD rats after oral administration; type: in vivo; details: 5 mg/kg, plasma; for AUC(0-t) / AUC(0-inf) / half-life / MRT / Cmax: male, Sprague-Dawley (SD), rat, po; for AUC(0-t): read-out: Area under the curve AUC0-t; for AUC(0-inf): read-out: Area under the curve AUC0-∞; for half-life: read-out: Half-life t1/2 (converted); for MRT: read-out: Mean residence time MRT; for Cmax: read-out: Plasma concentration Cmax; for Time to peak tmax: p.o.

Chain of FGFR2 V564F (P21802 481-770 V564F): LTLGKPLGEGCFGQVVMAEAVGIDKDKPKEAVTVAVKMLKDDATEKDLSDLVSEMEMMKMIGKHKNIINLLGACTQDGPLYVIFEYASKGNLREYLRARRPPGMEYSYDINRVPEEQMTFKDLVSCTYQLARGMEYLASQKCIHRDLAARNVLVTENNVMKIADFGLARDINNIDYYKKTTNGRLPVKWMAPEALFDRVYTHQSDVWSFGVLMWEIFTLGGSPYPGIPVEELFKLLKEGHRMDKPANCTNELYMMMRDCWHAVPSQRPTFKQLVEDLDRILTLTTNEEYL
Chain of FGFR1 (P11362 478-767): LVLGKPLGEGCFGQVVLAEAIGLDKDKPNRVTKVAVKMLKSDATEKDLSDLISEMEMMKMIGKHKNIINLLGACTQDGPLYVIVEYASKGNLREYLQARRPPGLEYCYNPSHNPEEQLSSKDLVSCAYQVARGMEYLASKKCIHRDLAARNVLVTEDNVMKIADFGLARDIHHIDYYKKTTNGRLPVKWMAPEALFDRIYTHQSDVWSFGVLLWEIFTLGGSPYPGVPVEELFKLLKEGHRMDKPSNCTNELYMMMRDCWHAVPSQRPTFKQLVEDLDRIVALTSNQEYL
Chain of FGFR2 (P21802 481-770): as the sequence (P21802 481-770 V564F) above, with F84V counted along it
Chain of FGFR3 (P22607 472-761): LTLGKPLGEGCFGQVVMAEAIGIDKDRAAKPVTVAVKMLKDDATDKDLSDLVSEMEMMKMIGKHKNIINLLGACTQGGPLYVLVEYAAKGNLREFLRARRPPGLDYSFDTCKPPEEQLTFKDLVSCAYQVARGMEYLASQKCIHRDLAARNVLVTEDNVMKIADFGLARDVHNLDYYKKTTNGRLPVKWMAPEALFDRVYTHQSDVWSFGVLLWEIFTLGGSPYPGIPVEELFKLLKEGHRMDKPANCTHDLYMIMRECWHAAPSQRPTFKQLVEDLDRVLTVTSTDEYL

| IC50 (FGFR3) [nM] | IC50 (FGFR1) [nM] | IC50 (FGFR2 V564F) [nM] | IC50 [1] [nM] | IC50 (NCI-H716 cells) [nM] | IC50 (FGFR2) [nM] | AUC(0-t) [2] [ng·h/mL] | AUC(0-inf) [2] [ng·h/mL] | half-life [2] [h] | MRT [2] [h] | Cmax [2] [ng/mL] | Time to peak tmax [2] [h] | SMILES |
| --- | --- | --- | --- | --- | --- | --- | --- | --- | --- | --- | --- | --- |
| 1.1 | 2.4 | 0.5 | 2 | 0.95 | 1 | – | – | – | – | – | – | C=CC(=O)N1CC[C@H](n2nc(C#Cc3ccc4c(c3)ncn4C3CC3)c3c(N)ncc(C(C)=O)c32)C1 [Example 37, (S)-1-(3-(7-acetyl-4-amino-3-((1-cyclopropyl-1H-benzo[d]imidazol-5-yl)ethynyl)-1H-pyrazolo[4,3-c]pyridin-1-yl)pyrrolidin-1-yl)prop-2-en-1-one] |
| – | 2.8 | 1 | 1.9 | 0.91 | 1.6 | 2230 | 2270 | 1.1 | 2.99 | 604 | 2 | C=CC(=O)N1CC[C@H](n2nc(C#Cc3ccc4c(c3)ncn4C3CC3)c3c(N)ncc(C(=O)C4CC4)c32)C1 [Example 38, (S)-1-(3-(4-amino-7-(cyclopropanecarbonyl)-3-((1-cyclopropyl-1H-benzo[d]imidazol-5-yl)ethynyl)-1H-pyrazolo[4,3-c]pyridin-1-yl)pyrrolidin-1-yl)prop-2-en-1-one] |
| – | 6.3 | 0.6 | 1.9 | 1.8 | 1.4 | 3400 | 3430 | 0.9 | 2.58 | 866 | 2 | C=CC(=O)N1CC[C@H](n2nc(C#Cc3ccc4c(c3)ncn4C)c3c(N)ncc(C(=O)CC)c32)C1 [Example 64, (S)-1-(3-(4-amino-3-((1-methyl-1H-benzo[d]imidazol-5-yl)ethynyl)-7-propionyl-1H-pyrazolo[4,3-c]pyridin-1-yl)pyrrolidin-1-yl)prop-2-en-1-one] |
| – | 2.4 | 0.3 | 0.5 | 1.42 | 1.4 | – | – | – | – | – | – | C=CC(=O)N1CC[C@H](n2nc(C#Cc3cc4ncn(C)c4cc3Cl)c3c(N)ncc(C(=O)C4CC4)c32)C1 [Example 68, (S)-1-(3-(4-amino-3-((6-chloro-1-methyl-1H-benzo[d]imidazol-5-yl)ethynyl)-7-(cyclopropanecarbonyl)-1H-pyrazolo[4,3-c]pyridin-1-yl)pyrrolidin-1-yl)prop-2-en-1-one] |
| – | 2.4 | 1.3 | 2.6 | 1.6 | 0.6 | 1510 | 1860 | 2.5 | 5.5 | 287 | 4 | C=CC(=O)N1CC[C@H](n2nc(C#Cc3ccc4oc(C5CC5)nc4c3)c3c(N)ncc(C(C)=O)c32)C1 [Example 70, (S)-1-(3-(7-acetyl-4-amino-3-((2-cyclopropylbenzo[d]oxazol-5-yl)alkynyl)-1H-pyrazolo[4,3-c]pyridin-1-yl)pyrrolidine-1-methyl)prop-2-en-1-one] |
| – | 4.5 | 0.4 | 1.1 | 1.2 | 0.7 | – | – | – | – | – | – | C=CC(=O)N1CC[C@H](n2nc(C#Cc3ccn4ccnc4c3)c3c(N)ncc(C(=O)C4CC4)c32)C1 [Example 79, (S)-1-(3-(4-amino-7-(cyclopropanecarbonyl)-3-(imidazo[1,2-a]pyridine-7-ethynylene)-1H-pyrazolo[4,3-c]pyridin-1-yl)pyrrolidine-1-methyl)prop-2-en-1-one] |
| – | 1.7 | 0.3 | 0.7 | 0.82 | 0.3 | – | – | – | – | – | – | C=CC(=O)N1CC[C@H](n2nc(C#Cc3ccc4cn(C)nc4c3)c3c(N)ncc(C(=O)CC)c32)C1 [Example 83, (S)-1-(3-(4-amino-3-((2-methyl-2H-indazol-6-yl)alkynyl)-7-propionyl-1H-pyrazolo[4,3-c]pyridin-1-yl)pyrrolidine-1-methyl)prop-2-en-1-one] |
| – | 1 | 0.3 | 0.1 | 1.04 | 0.5 | – | – | – | – | – | – | C=CC(=O)N1CC[C@H](n2nc(C#Cc3ccc4cn(C)nc4c3)c3c(N)ncc(C(=O)C4CC4)c32)C1 [Example 84, (S)-1-(3-(4-amino-7-(cyclopropanecarbonyl)-3-((2-methyl-2H-indazol-6-yl)ethynyl)-1H-pyrazolo[4,3-c]pyridin-1-yl)pyrrolidin-1-yl)prop-2-en-1-one] |
| – | 2.1 | 0.5 | 0.4 | 0.96 | 0.4 | 1490 | 1490 | 0.5 | 2.39 | 394 | 0.5 | C=CC(=O)N1CC[C@H](n2nc(C#Cc3ccc4cn(CC)nc4c3)c3c(N)ncc(C(C)=O)c32)C1 [Example 85, (S)-1-(3-(7-acetyl-4-amino-3-((2-ethyl-2H-indazol-6-yl)alkynyl)-1H-pyrazolo[4,3-c]pyridin-1-yl)pyrrolidine-1-methyl)prop-2-en-1-one] |
| – | 1.6 | 0.6 | 0.3 | 1.31 | 0.5 | 2240 | 2240 | 0.5 | 2.38 | 534 | 2 | C=CC(=O)N1CC[C@H](n2nc(C#Cc3ccc4cn(C5CC5)nc4c3)c3c(N)ncc(C(C)=O)c32)C1 [Example 87, (S)-1-(3-(7-acetyl-4-amino-3-((2-cyclopropyl-2H-indazol-6-yl)ethynyl)-1H-pyrazolo[4,3-c]pyridin-1-yl)pyrrolidine-1-methyl)prop-2-en-1-one] |
| – | 2.7 | 0.7 | 1.6 | 0.94 | 0.4 | – | – | – | – | – | – | C=CC(=O)N1CC[C@H](n2nc(C#Cc3ccc4csnc4c3)c3c(N)ncc(C(C)=O)c32)C1 [Example 89, (S)-1-(3-(7-acetyl-4-amino-3-(benzo[c]isothiazole-6-ethynylene)-1H-pyrazolo[4,3-c]pyridin-1-yl)pyrrolidine-1-methyl)prop-2-en-1-one] |
| – | 3.9 | 1.1 | 0.8 | 0.97 | 1 | – | – | – | – | – | – | C=CC(=O)N1CC[C@H](n2nc(C#Cc3ccc4csnc4c3)c3c(N)ncc(C(=O)C4CC4)c32)C1 [Example 91, (S)-1-(3-(4-amino-3-(benzo[c]isothiazole-6-ethynylene)-7-(cyclopropanecarbonyl)-1H-pyrazolo[4,3-c]pyridin-1-yl)pyrrolidine-1-methyl)prop-2-en-1-one] |
